Assay results as given in US20220289731A1, “MELANOCORTIN-4 RECEPTOR AGONISTS” (LG CHEM, LTD., priority 2019, published 2022).
Where a name gives a salt, the structure may show the parent alone.

Legend:
[1] = test system: mouse obesity model induced by high fat diet; assay: Mouse obesity model induced by high fat diet; type: in vivo, C57BL/6Ntaconic mice; details: Day 12, 10 mg/kg, oral once a day, high-fat-diet obese mice
Protocol: The effect of melanocortin-4 receptor agonists on obesity was evaluated by using the mouse obesity model induced with a high fat diet.
Five-week-old male C57BL/6Ntaconic mice were fed with a 60 kcal % fat diet (D12492, Research Diet.) for 15 weeks to induce obesity. The compound of Example 1, the compounds of the comparative examples (A95 and A96), and sibutramine as a positive control were prepared in distilled water and orally administered to […] mouse obesity models induced by a high-fat diet once a day from day 1 to day 16. From Day 1 to Day 16, the body weight was measured once a day, the dietary intake was measured five times a week, and drinking water intake was measured twice a week. Blood glucose and glycated hemoglobin were measured on Day 15, and all animals were sacrificed on Day 17. Blood was collected through the abdominal vena cava, and the liver and epididymal adipose tissues were removed and weighed. The collected blood was placed in a heparin tube and centrifuged to separate plasma, and then plasma biochemical analysis was performed.

MC4R [2] = molecular target: T1, MC4R (Homo sapiens, UniProt P32245); assay: β-arrestin assay (Pathhunter eXpress U2OS cell line); type: cell-based; parameters: expressed in transfected cells; host or cells: U2OS (Pathhunter eXpress β-arrestin cell line); details: U2OS cells, 90 min at 37° C.
Source text: The melanocortin receptor is a type of G-protein coupled receptor (GPCR) and regulates various physiological responses by transducing signals from many neurotransmitters. When GPCR is phosphorylated, β-arrestin is bound to the phosphorylated part of the receptor and plays an important role in activating various signaling pathways in cells through interaction with other proteins. It is known that, when the melanocortin receptor interacts with an agonist, β-arrestin is mobilized and is involved in the β-arrestin-mediated signaling pathway. Therefore, the activity of the melanocortin receptor can be evaluated through the measurement of β-arrestin.
A Pathhunter eXpress β-arrestin cell line (U2OS cell line) in which Prolink (PK)-tagged MC1R, MC3R, MC4R, MC5R and Enzyme acceptor (EA)-tagged β-arrestin were expressed together was established. When the MCR-PK portion of this cell line is activated, β-arrestin-EA is mobilized, and enzyme acceptor (EA) and Prolink (PK), which are the β-galactosidase enzyme fragments, interact. The activated enzyme hydrolyzes the substrate by β-galactosidase activity to produce a chemiluminescent signal, so that the activity can be measured. After the Pathhunter eXpress β-arrestin cell line (U2OS cell line) was incubated, the cells were inoculated into each well of the cell culture plate and incubated for 48 hours in a 37° C. incubator in the presence of 5% CO2. After the incubation, 5 μl of the sample diluted 5 times with buffer was added, the vehicle concentration was set to 1%, and the MC4R agonist compound diluted at each step concentration was added, followed by reaction at 37° C. for 90 minutes. The activity (%) of each agonist compound is expressed as 100%×(average RLU value of sample−average RLU value of vehicle control)/(average maximum value of control ligand−average RLU value of vehicle control), and the value was analyzed by CBIS data analysis suite (ChemInnovation, CA).
Target sequence in this assay (P32245 whole entry): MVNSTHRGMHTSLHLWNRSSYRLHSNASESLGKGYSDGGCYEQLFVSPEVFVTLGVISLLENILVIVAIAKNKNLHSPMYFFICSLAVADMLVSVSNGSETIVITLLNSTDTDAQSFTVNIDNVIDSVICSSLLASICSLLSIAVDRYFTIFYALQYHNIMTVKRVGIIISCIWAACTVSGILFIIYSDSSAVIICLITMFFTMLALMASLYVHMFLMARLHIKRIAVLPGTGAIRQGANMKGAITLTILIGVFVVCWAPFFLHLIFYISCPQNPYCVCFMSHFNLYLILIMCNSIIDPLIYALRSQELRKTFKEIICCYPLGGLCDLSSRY
Target sequence in this assay (P32121 whole entry partner): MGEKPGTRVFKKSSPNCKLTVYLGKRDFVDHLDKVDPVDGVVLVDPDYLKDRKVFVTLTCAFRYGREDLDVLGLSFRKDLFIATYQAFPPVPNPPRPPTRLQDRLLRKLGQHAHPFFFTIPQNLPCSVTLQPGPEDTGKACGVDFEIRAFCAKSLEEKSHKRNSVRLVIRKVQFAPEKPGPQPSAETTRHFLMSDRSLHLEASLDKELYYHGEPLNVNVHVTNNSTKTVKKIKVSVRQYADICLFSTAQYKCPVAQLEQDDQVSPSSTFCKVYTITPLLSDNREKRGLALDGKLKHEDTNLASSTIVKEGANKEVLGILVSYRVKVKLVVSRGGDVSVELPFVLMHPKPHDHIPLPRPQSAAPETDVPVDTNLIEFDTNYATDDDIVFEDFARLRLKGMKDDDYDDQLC

MC4R [3] = molecular target: T1, MC4R; assay: Luciferase assay (HEK MC4R-Luc, CRE-LUC); type: cell-based; parameters: expressed in transfected cells; details: HEK MC4R-Luc cells, 5 h incubation
Protocol: In order to measure the agonist ability against MC4R (melanocortin-4 receptor), a cell line that permanently expresses the luciferase gene (CRE-LUC) under the control of MC4R and CRE (cAMP response element) was established. After a mammalian cell expression vector (pCDNA3 (Neo)) (Invitrogen) containing the MC4R gene was prepared, human embryonic kidney (HEK) cell lines were transformed by using Lipofectamine 2000 (Invitrogen) together with a vector (pCRE-Luc)(Stratagen) expressing a luciferase gene (CRE-LUC) under the control of a cAMP response element (CRE). Transformed cell lines (HEK MC4R-Luc) were incubated in a 37° C. incubator in the presence of 5% CO2 for 24 hours by using Dulbecco's Modified Eagles Medium (DMEM) containing 10% Heat-Inactivated Fetal Bovine Serum (GIBCO/BRL). The cell lines were incubated for four days in the presence of Dulbecco's Modified Eagles Medium (DMEM) containing 10 ml of selection medium (10% Heat-Inactivated Fetal Bovine Serum (GIBCO/BRL), 100 unit/ml of penicillin (GIBCO/BRL), 100 unit/ml of streptomycin (GIBCO/BRL), 800 μg/ml of Geneticin (G418) (GIBCO/BRL). The process of removing cells killed by the selection medium by replacing the medium with 10 ml of a new selection medium was repeated three times, once every 4 days. Individual colonies formed by the finally selected and propagated clones were transferred under a microscope to a 24-well cell culture plate containing 1 ml of selection medium per well and incubated for 4 days. Forskolin (SIGMA) was treated to a final concentration of 10 μM, and then incubated for five hours in a 37° C. incubator in the presence of 5% CO2. Each well was treated with 50 μl of a Bright-Glo luciferase reagent (Promega) and left at room temperature for 15 minutes, and then the luminescence of each well was measured by using a luminometer (Victor).
HEK MC4R-Luc cells were added to each well of a 96-well luminometer cell culture plate (Costar) to a size of 2.5×10^4 cells in 100 μl of a culture medium and then incubated in a 37° C. incubator in the presence of 6% CO2 for 18 hours. […] Each well was treated with 50 μl of a Bright-Glo luciferase reagent (Promega) and left at room temperature for five minutes, and then the luminescence of each well was measured by using a luminometer (Victor). […] EC0.5 MSH is expressed as a concentration that induces 50% of the maximum amount of luminescence that can be induced by NDP-α-MSH, and EC50 is expressed as a concentration that induces 50% of the maximum amount of luminescence that can be induced by each agonist. The measurements were measured using statistical software (Prizm).
Target sequence in this assay (P32245 whole entry, species assumed): as the sequence (P32245 whole entry) above

MC4R [4] = molecular target: T1, MC4R; assay: cAMP assay (cAMP Hunter Gs-coupled CHO-K1 cell line); type: cell-based; parameters: expressed in transfected cells; host or cells: CHO-K1 (cAMP Hunter Gs-coupled cell line); details: CHO-K1 cells overexpressing MC4R, 30 min at 37° C.
Source text: The melanocortin receptor is a type of G-protein coupled receptor (GPCR), and the main role of G-protein is to activate secondary transducers to regulate cellular responses to many physiological stimuli through signal transduction. MC4R is a Gs-coupled receptor, and it is known that if MC4R interacts with an agonist, adenylate cyclase (AC) is activated to increase the concentration of cyclic AMP (cAMP), which is one of the secondary transducers in cells. Therefore, it is possible to evaluate the activity of melanocortin receptors by measuring the generation of cAMP signals.
After cAMP Hunter Gs-coupled cell lines (CHO-K1 cell line) in which each of MC1R, MC3R, MC4R and MCSR was overexpressed were established so that the increase in the cAMP level in cells due to agonist reaction was measurable, the cells were inoculated into each well of a white cell culture plate and incubated for 24 hours in a 37° C. incubator in the presence of 5% CO2. After the incubation, the medium was removed, and 15 μl of a 2:1 HBBS/10 mM HEPES:cAMP XS+Ab reagent was added. After 5 μl of the sample diluted 4 times with buffer was added, the vehicle concentration was set to 1%, and the MC4R agonist compound diluted at each step concentration was added, followed by reaction at 37° C. for 30 minutes. The activity (%) of each agonist compound is expressed as 100%×(average RLU value of sample−average RLU value of vehicle control)/(average RLU value of max control−average RLU value of vehicle control), and the value was analyzed by CBIS data analysis suite (ChemInnovation, CA).
Target sequence in this assay (P32245 whole entry, species assumed): as the sequence (P32245 whole entry) above

MC4R [5] = molecular target: T1, MC4R; assay: Binding affinity, 125I-NDP-α-MSH displacement on membranes; parameters: expressed in transfected cells; host or cells: HEK-293 cells; membranes collected; details: HEK-293 MC4R membrane, 0.02 nM 125I-NDP-α-MSH
Source text: Five subtypes of melanocortin receptor (MCR) in vivo are known, and it is known that MC4R, which is Subtype 4, is involved in energy metabolism and weight control. Since other MCR subtypes are involved in the regulation of various functions in vivo such as skin pigmentation, energy homeostasis, and exocrine functions, securing selectivity for MC4R of MC4R agonist compounds is very important in preventing possible side effects in the future. Therefore, the receptor binding abilities of MC4R agonists for each MCR subtype were measured.
After the CHO-K1 cell line expressing human recombinant MC1R and the HEK-293 cell lines expressing MC3R, MC4R and MCSR were established, membranes were collected from each cell line. In a 96-well cell culture plate, 3 μg MC1R membrane and 0.04 nM ^125I-NDP-α-MSH per well were reacted at 37° C. for two hours. 3 μg MC3R and MCSR membrane and 0.035 nM ^125I-NDP-α-MSH were reacted at 37° C. for one hour, and 3.12 μg MC4R membrane and 0.02 nM ^125I-NDP-α-MSH were reacted at 37° C. for two hours. At this time, 25 mM HEPES-KOH adsorption buffer (pH 7.0) containing MCR agonist diluted at each step concentration was added to each well and reacted. The reacted solution was transferred to a filter and washed with an adsorption buffer, and then radioactivity was measured. The value excluding the non-specific binding amount in the presence of 1 μM (MC1R) and 3 μM (MC3R, MC4R, MCSR) of NDP-α-MSH from each total binding amount was used as specific binding amounts of ^125I-NDP-α-MSH. The degree to which the ^125I-NDP-α-MSH specific binding was inhibited by the agonist diluted at each step concentration was measured. IC50 was expressed as the concentration of each agonist that inhibited specific binding of 50% of ^125I-NDP-α-MSH.
Target sequence in this assay (P32245 whole entry): as above

Row | SMILES | Difference in weight change rate to vehicle [1] [%] | EC50 (MC4R [2]) [nM] | EC50 (MC4R [3]) [nM] | EC50 (MC4R [4]) [nM] | Ki (MC4R [5]) [nM]
1 | CC(C)CC(N(C)C)C1(c2ccc(Cl)cc2)CCC1 (stereo not drawn) [Sibutramine] | −6.8 |  |  |  | 
2 | CC(C)(C)C(=O)N([C@H]1C[C@@H](C(=O)N2CCOCC2)N(C(=O)[C@@H]2CN(C(C)(C)C)C[C@H]2c2ccc(Cl)cc2)C1)[C@H]1CC[C@@H](C)CC1 [Example 3, N-((3S,5S)-1-((3S,4R)-1-(tert-butyl)-4-(4-chlorophenyl)pyrrolidine-3-carbonyl)-5-(morpholine-4-carbonyl)pyrrolidin-3-yl)-N-((1s,4R)-4-methylcyclohexyl)pivalamide hydrochloride] |  | 3.3 | 0.675 | 22.7 | 24
3 | CCC(=O)N([C@H]1C[C@@H](C(=O)N2CCOCC2)N(C(=O)[C@@H]2CN(C(C)(C)C)C[C@H]2c2ccc(Cl)cc2)C1)[C@H]1CC[C@@H](C)CC1 [Example 2, N-((3S,5S)-1-((3S,4R)-1-(tert-butyl)-4-(4-chlorophenyl)pyrrolidine-3-carbonyl)-5-(morpholine-4-carbonyl)pyrrolidin-3-yl)-N-((1s,4R)-4-methylcyclohexyl)propionamide hydrochloride] |  | 8.7 | 1.07 | 50.3 | 110
